Broadly, the Kd is a measure of binding affinity in units of concentration.

Structures are written as SMILES. Active and inactive are the calls of the source.

The record followed here is ChEMBL document CHEMBL3991601, “The target landscape of clinical kinase drugs” (Science, 2017).

Test [1] has as its target Serine/threonine-protein kinase N1 (Homo sapiens, UniProt Q16512).
In test [2] the target is Casein kinase I isoform gamma-1 (Homo sapiens, UniProt Q9HCP0).
The next test has as its target T1, ADP/ATP translocase 3 (Homo sapiens, UniProt P12236).
T1 sequence (P12236 whole entry): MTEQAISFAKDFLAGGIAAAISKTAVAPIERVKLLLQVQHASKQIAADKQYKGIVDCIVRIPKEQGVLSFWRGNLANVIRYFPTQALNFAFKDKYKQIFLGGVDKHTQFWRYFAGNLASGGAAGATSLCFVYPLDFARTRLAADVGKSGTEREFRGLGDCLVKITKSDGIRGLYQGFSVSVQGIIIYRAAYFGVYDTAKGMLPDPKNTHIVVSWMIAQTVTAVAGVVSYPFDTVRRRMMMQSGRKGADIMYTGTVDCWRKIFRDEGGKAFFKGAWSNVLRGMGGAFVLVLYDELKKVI

In another test the target is T2, dCTP pyrophosphatase 1 (Homo sapiens, UniProt Q9H773).
T2 sequence (Q9H773 whole entry): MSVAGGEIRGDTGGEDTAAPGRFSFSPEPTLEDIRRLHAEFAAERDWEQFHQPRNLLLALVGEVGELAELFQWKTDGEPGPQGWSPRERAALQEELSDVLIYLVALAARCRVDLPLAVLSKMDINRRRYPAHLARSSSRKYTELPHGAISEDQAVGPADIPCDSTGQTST

For test [3], the target named is Epithelial discoidin domain-containing receptor 1 (Homo sapiens, UniProt Q08345).
The target of test [4] is Serine/threonine-protein kinase N2 (Homo sapiens, UniProt Q16513).
Test [5] deals with T3, Cysteine--tRNA ligase, cytoplasmic (Homo sapiens, UniProt P49589).
T3 sequence (P49589 whole entry): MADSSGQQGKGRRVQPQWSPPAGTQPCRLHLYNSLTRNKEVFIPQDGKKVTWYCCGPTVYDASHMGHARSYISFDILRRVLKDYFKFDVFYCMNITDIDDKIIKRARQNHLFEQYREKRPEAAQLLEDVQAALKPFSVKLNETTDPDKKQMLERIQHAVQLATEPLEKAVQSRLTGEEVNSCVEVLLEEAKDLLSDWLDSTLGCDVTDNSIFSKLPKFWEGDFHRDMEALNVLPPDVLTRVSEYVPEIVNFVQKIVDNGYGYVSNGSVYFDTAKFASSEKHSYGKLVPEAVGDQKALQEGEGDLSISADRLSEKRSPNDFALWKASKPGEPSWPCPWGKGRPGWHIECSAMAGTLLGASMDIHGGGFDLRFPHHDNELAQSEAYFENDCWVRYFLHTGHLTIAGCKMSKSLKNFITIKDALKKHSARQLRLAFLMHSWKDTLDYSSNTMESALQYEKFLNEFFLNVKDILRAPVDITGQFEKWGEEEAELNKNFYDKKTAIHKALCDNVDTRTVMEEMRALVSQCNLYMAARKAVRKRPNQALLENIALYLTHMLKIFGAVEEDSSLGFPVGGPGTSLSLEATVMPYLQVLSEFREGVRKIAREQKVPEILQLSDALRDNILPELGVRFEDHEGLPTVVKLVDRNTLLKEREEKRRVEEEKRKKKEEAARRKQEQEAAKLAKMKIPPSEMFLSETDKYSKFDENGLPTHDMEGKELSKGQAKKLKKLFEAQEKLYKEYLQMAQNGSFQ

Test [6] concerns the target T4, Phenylalanine--tRNA ligase beta subunit (Homo sapiens, UniProt Q9NSD9).
T4 sequence (Q9NSD9 whole entry): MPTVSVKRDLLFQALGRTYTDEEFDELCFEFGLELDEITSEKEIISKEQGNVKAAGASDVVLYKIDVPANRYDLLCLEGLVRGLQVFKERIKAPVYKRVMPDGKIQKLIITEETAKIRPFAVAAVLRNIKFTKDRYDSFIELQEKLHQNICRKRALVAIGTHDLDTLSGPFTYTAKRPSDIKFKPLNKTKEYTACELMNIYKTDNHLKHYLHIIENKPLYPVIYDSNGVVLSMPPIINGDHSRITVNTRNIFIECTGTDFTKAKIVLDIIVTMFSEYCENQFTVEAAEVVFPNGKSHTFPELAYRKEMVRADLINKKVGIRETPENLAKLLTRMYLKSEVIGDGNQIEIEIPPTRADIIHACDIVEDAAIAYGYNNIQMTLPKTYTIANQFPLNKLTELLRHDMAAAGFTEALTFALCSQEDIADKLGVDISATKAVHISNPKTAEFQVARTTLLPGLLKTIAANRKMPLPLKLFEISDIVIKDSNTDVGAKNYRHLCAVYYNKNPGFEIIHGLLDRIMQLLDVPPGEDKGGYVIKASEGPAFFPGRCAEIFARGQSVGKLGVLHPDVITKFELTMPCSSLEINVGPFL

The target in test [7] is Cyclin-dependent kinase 3 (Homo sapiens, UniProt Q00526).
For test [8], the target named is Serine/threonine-protein kinase 26 (Homo sapiens, UniProt Q9P289).
Further: in the data inactive means no Kd found up to 30 µM.

Chain of Serine/threonine-protein kinase 26 (Q9P289 whole entry): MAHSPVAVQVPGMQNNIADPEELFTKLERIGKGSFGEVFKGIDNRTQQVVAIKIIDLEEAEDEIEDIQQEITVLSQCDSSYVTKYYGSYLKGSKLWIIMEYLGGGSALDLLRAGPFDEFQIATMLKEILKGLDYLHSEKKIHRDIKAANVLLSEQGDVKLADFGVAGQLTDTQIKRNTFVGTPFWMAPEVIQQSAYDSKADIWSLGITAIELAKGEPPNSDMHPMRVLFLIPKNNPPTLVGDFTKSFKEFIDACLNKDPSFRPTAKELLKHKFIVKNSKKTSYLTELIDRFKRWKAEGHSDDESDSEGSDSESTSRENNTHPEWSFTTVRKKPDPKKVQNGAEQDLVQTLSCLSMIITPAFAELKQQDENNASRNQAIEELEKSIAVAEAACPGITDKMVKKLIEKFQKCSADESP
Chain of Serine/threonine-protein kinase N2 (Q16513 whole entry): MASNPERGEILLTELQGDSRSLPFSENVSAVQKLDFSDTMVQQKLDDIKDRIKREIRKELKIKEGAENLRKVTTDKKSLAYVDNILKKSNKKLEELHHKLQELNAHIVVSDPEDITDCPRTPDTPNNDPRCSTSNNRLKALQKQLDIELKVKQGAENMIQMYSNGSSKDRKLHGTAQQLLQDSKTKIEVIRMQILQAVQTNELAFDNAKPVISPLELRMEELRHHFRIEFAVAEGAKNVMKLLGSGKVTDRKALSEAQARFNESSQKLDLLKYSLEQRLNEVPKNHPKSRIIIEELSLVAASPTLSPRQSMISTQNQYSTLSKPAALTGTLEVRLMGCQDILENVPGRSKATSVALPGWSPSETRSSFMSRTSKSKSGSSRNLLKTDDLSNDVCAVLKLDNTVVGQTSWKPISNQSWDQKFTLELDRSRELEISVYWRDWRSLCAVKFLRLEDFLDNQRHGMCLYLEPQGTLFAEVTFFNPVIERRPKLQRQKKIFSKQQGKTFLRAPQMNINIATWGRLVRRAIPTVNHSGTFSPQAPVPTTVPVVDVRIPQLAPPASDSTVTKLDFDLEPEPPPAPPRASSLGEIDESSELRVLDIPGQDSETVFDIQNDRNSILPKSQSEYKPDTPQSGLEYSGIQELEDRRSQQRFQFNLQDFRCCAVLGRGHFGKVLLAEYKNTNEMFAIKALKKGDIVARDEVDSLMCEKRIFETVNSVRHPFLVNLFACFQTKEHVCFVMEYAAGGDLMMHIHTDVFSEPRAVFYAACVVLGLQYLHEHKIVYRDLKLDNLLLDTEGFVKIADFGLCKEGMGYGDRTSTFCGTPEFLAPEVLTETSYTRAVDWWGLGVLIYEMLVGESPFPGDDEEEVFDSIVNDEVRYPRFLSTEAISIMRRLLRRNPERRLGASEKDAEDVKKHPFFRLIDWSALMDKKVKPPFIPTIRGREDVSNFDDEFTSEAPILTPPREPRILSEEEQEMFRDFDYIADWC
Chain of Serine/threonine-protein kinase N1 (Q16512 whole entry, canonical isoform): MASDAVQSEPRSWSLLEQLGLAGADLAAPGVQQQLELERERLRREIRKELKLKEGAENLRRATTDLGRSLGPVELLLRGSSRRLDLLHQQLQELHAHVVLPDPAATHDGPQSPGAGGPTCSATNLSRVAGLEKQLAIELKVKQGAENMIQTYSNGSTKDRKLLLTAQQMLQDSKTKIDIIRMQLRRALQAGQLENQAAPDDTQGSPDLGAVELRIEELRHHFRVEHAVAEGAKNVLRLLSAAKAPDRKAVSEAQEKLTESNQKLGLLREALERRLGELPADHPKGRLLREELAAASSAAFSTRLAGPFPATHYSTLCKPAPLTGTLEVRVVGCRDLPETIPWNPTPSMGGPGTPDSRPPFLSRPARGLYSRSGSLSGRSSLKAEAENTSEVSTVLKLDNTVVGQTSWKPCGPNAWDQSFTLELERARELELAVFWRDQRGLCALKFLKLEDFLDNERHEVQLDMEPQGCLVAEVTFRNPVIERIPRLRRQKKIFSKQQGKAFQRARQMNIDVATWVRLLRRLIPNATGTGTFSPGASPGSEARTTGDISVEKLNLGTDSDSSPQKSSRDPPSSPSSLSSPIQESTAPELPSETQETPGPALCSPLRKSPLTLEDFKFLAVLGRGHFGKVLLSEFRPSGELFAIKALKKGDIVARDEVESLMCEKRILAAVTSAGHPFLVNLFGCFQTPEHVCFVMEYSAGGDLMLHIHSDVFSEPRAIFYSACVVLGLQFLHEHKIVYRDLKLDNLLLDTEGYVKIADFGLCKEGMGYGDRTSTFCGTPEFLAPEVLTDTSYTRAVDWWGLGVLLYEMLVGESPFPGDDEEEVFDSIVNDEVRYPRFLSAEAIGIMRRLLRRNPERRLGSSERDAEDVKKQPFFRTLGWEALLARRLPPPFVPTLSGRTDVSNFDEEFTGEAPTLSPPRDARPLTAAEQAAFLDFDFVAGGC
Chain of Casein kinase I isoform gamma-1 (Q9HCP0 whole entry, canonical isoform): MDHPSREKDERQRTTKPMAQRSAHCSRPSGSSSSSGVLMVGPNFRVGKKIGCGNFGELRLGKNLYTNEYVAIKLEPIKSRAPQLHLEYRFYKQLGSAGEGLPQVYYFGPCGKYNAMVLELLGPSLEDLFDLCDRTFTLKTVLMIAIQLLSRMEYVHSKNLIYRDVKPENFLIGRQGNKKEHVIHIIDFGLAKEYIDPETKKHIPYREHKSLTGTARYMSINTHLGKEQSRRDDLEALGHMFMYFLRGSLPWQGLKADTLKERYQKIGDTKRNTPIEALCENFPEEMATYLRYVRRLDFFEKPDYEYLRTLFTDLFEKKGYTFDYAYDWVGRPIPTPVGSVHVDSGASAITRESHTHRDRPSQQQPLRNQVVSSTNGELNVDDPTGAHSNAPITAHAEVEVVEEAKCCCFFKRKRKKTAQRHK
Chain of Epithelial discoidin domain-containing receptor 1 (Q08345 whole entry, the tested form may be a part): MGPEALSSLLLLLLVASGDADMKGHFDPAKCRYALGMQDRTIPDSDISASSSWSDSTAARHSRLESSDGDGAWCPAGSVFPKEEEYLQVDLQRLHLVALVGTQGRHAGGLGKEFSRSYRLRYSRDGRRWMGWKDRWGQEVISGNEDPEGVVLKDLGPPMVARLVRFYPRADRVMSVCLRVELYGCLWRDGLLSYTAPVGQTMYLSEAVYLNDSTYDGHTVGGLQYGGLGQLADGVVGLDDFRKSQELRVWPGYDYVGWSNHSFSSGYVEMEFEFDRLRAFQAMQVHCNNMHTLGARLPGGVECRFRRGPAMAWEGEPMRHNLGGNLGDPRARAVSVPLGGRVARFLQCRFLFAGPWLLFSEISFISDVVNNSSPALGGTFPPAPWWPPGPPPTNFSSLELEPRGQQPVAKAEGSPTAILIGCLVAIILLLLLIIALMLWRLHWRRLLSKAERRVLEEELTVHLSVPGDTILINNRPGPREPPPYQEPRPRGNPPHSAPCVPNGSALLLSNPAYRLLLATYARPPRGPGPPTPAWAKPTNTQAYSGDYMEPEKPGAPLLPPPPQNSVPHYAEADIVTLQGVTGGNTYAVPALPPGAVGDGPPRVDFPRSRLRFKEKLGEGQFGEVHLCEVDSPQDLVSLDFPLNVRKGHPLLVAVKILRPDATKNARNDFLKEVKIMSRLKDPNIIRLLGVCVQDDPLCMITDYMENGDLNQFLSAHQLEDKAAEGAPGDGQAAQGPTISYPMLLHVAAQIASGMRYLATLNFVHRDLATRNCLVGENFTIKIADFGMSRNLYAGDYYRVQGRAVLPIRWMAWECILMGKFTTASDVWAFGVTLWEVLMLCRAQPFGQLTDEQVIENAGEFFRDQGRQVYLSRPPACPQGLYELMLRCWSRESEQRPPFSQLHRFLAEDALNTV
Chain of Cyclin-dependent kinase 3 (Q00526 whole entry): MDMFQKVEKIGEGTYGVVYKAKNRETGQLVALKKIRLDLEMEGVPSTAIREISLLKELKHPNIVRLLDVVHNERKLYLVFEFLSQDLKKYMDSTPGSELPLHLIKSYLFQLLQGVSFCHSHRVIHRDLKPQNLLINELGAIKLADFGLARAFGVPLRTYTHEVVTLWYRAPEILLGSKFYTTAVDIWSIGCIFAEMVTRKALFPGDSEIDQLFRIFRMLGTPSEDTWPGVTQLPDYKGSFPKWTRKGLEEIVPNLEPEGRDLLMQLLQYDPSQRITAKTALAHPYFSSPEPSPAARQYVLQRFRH

Regarding `COc1cc2nccc(Oc3ccc(NC(=O)NC4CC4)c(Cl)c3)c2cc1C(N)=O` [LENVATINIB], the Kd in [1] was > 30 µM (inactive); in test [2] it was > 30 µM (inactive); on ADP/ATP translocase 3, > 30 µM (inactive); at dCTP pyrophosphatase 1 it was > 30 µM (inactive); in [3], 0.046 µM (active); in test [4], > 30 µM (inactive). The Kd in test [5] and in [6] was > 30 µM (inactive) throughout.
Turning to `CO[C@H]1C[C@@H]2CC[C@@H](C)[C@@](O)(O2)C(=O)C(=O)N2CCCC[C@H]2C(=O)O[C@H]([C@H](C)C[C@@H]2CC[C@@H](OCCO)[C@H](OC)C2)CC(=O)[C@H](C)/C=C(\C)[C@@H](O)[C@@H](OC)C(=O)[C@H](C)C[C@H](C)/C=C/C=C/C=C/1C` [EVEROLIMUS], the Kd (in [1]; in test [2]; at ADP/ATP translocase 3; at dCTP pyrophosphatase 1; in test [3]; in test [7]) was > 30 µM (inactive) in each case. Also, the Kd in [4], in test [5], in test [6] and in test [8] was > 30 µM (inactive) in each case.
Regarding `Cc1ccc(NC(=O)c2ccc(CN3CC[C@H](N(C)C)C3)c(C(F)(F)F)c2)cc1Nc1nccc(-c2cncnc2)n1` [BAFETINIB], the Kd in test [1] is > 30 µM (inactive); in [2] it was > 30 µM (inactive); on ADP/ATP translocase 3, > 30 µM (inactive); at dCTP pyrophosphatase 1 it was > 30 µM (inactive); in test [3] it was 0.014 µM (active); in test [7] it was > 30 µM (inactive). Besides, the Kd in test [4], in test [5], in [6] and in test [8] was > 30 µM (inactive) in each case.
For the molecule `O=C(Nc1cccc(Cl)c1)Nc1ncc(CCNc2ncnc3ccsc23)s1` [SNS-314], the Kd in test [1] is > 30 µM (inactive); at ADP/ATP translocase 3, > 30 µM (inactive); at dCTP pyrophosphatase 1, > 30 µM (inactive); in [3] it was 0.14 µM (active); in [7], > 30 µM (inactive); in test [5], > 30 µM (inactive). The Kd in test [6] and in test [8] was > 30 µM (inactive) each time.
As for `COc1cc(CCc2cc(NC(=O)c3ccc(N4C[C@@H](C)N[C@@H](C)C4)cc3)n[nH]2)cc(OC)c1` [AZD-4547], the Kd (in [1]; in [2]; on ADP/ATP translocase 3; on dCTP pyrophosphatase 1; in test [7]; in [4]) was > 30 µM (inactive) throughout. For the same molecule, the Kd in test [5] and in test [6] was > 30 µM (inactive) throughout.
With `CCS(=O)(=O)N1CC(CC#N)(n2cc(-c3ncnc4[nH]ccc34)cn2)C1` [BARICITINIB], the dissociation constant (Kd) in test [1] was 0.104 µM (active); in test [2] it was 1.75 µM; on ADP/ATP translocase 3 it was > 30 µM (inactive); on dCTP pyrophosphatase 1, > 30 µM (inactive); in test [3] it was > 30 µM (inactive); in test [7], > 30 µM (inactive). Also, the Kd in test [5], in test [6] and in test [8] was > 30 µM (inactive) in each case.
For the molecule `Cc1cc(Nc2cc(N3CCN(C)CC3)nc(/C=C/c3ccccc3)n2)n[nH]1` [ENMD-2076], the Kd is > 30 µM (inactive) in test [1]; > 30 µM (inactive) on ADP/ATP translocase 3; > 30 µM (inactive) at dCTP pyrophosphatase 1; 0.755 µM (active) in [3]; > 30 µM (inactive) in test [7]; > 30 µM (inactive) in [5]. For the same molecule, the Kd in test [6] is > 30 µM (inactive).
Consider `CNC(=O)c1ccc(-c2cnc3ncc(Cc4ccc5ncccc5c4)n3n2)cc1F` [CAPMATINIB], for which the Kd (in [1]; in test [2]; at ADP/ATP translocase 3; on dCTP pyrophosphatase 1; in [3]; in test [4]) was > 30 µM (inactive) throughout. Besides, the Kd in test [5], in test [6] and in test [8] was > 30 µM (inactive) each time.
On to `Cc1nc(N)sc1-c1ccnc(Nc2ccc(N3CCOCC3)cc2)n1` [CYC-116], for which the Kd was 13.2 µM (active) in test [1]; > 30 µM (inactive) on ADP/ATP translocase 3; > 30 µM (inactive) at dCTP pyrophosphatase 1; > 30 µM (inactive) in [3]; > 30 µM (inactive) in test [5]; > 30 µM (inactive) in test [6]. In [8], this molecule came in with a Kd of 0.013 µM.
On to `CN1CCC(COc2cnc(-c3cccc(Cn4nc(-c5cccc(C#N)c5)ccc4=O)c3)nc2)CC1` [TEPOTINIB], for which the Kd (in test [1]; in [2]; at ADP/ATP translocase 3; on dCTP pyrophosphatase 1; in test [3]; in test [7]) was > 30 µM (inactive) in each case. In addition, the Kd in test [4], in test [5] and in test [6] was > 30 µM (inactive) each time.
Take `CCc1cnn2c(NCc3ccc[n+]([O-])c3)cc(N3CCCC[C@H]3CCO)nc12` [DINACICLIB]: the Kd (in test [1]; in test [2]; on ADP/ATP translocase 3; on dCTP pyrophosphatase 1; in test [3]; in test [4]) was > 30 µM (inactive) throughout. For the same molecule, the Kd in test [5] was > 30 µM (inactive); in test [6] it was > 30 µM (inactive); in test [8], 0.098 µM (active).
Consider `O=C(c1ccc(F)c(F)c1Nc1ccc(I)cc1F)N1CC(O)([C@@H]2CCCCN2)C1` [COBIMETINIB], for which the Kd (in test [1]; in test [2]; at ADP/ATP translocase 3; at dCTP pyrophosphatase 1; in test [3]; in [4]) was > 30 µM (inactive) in each case. Further, the Kd in test [5], in test [6] and in test [8] was > 30 µM (inactive) each time.
Regarding `COCCNCc1ccc(-c2cc3nccc(Oc4ccc(NC(=S)NC(=O)Cc5ccc(F)cc5)cc4F)c3s2)nc1` [GLESATINIB], the Kd (in [1]; in test [2]; on ADP/ATP translocase 3; at dCTP pyrophosphatase 1; in test [7]; in test [4]) was > 30 µM (inactive) throughout. For the same molecule, the Kd in [5], in test [6] and in test [8] was > 30 µM (inactive) each time.
Take `CNS(=O)(=O)Nc1nccc(Cc2c(C)c3ccc(Oc4ncccn4)cc3oc2=O)c1F` [AVUTOMETINIB]: the Kd (in test [1]; in test [2]; at ADP/ATP translocase 3; at dCTP pyrophosphatase 1; in [3]; in test [7]) was > 30 µM (inactive) each time. The Kd in test [4], in test [5] and in test [6] was > 30 µM (inactive) each time.
